Reference: patent US9085527B2, “Fatty acid acylated salicylates and their uses” (Catabasis Pharmaceuticals, Inc., priority 2008, dated 2015)
Where two headings read alike, the source gives them in different places.

Tests used:
NFκB = assay: NFκB-driven luciferase reporter in RAW 264.7 cells challenged with LPS; assay type: cell-based, mouse; conditions: read-out: NFκB Inhibitory Activity, IC50 μM
Description: RAW 264.7 cells transfected with an NFκB-driven luciferase reporter are plated in 96 well plates. Cells are treated with Vehicle (0.1% ethanol) or test compounds for 2 hours. As a positive control for inhibition of NFκB signaling, 6 wells are treated with 10 μM dexamethasone. Cells are then challenged with 200 ng/mL LPS for 3 hours in the presence of test compounds. A subset of wells treated with vehicle should remain unstimulated with LPS to determine the floor signal of the assay. NFκB driven luciferase activity is developed by addition of BriteLite luciferase kit (Perkin-Elmer) and measured using a Victor V plate reader. NFκB activity (luciferase activity) for each treatment was normalized to Vehicle wells treated with LPS (% NFκB Response). AlamarBlue was used to monitor cell viability to ensure that inhibition of luciferase signal was not a result of compound cytotoxicity.
RAW 264.7 cells stably expressing a 3×NF-κB response element-driven luciferase reporter were seeded into 96 well plates. After 18 hours, cells were pre-treated with compounds of the invention for 2 hours, and then stimulated with LPS (lipopolysaccharide, 200 ng/mL) or vehicle control for 3 h in the presence of the compounds of the invention. A set of six vehicle was left unstimulated with LPS in order to measure the assay floor. AlamarBlue viability dye (Invitrogen) was added to cells simultaneously with the delivery of LPS (final AlamarBlue concentration of 10%). After the 3 h incubation period with LPS, cell viability was measured by reading fluorescence (excitation 550 nm, emission 595 nm) with a Perkin Elmer Victor V plate reader. Then cell media was aspirated from each well. Luciferase signal was then developed by addition of the Britelite Plus reagent (Perkin Elmer). Luciferase activity was measured with the Perkin Elmer Victor V plate reader. NF-κB activity was expressed as a percent of the vehicle control wells (stimulated with LPS). Compounds were tested at 6 dose point titrations in triplicate to determine IC50 values.

[1] = test system: TNFα secretion in RAW 264.7 macrophages; assay: TNFα release assay in RAW 264.7 macrophages stimulated with LPS; assay type: cell-based, mouse
Description: The purpose of this assay is to measure the ability of small molecules to inhibit the secretion of TNFα in cultured macrophages stimulated with lipopolysaccharide (LPS). […] Dexamethasone, a potert agonist of the glucocorticoid receptor is used a positive control for inhibition of TNFα release.
Day 1: Seed RAW 264.7 macrophages into 96 well culture plates. Remove culture media from RAW 264.7 cell growing in a 75 mm^2 tissue culture flask (cells should be at ˜70% confluence) and add 10 mL of warmed complete growth media (DMEM+10% FBS+1× pen/step). The cells are scraped into suspension using a sterile plate scraper and homogenized by pipetting up and down with a 10 mL serological pipette. The cell concentration is determined using a clinical hematoctyometer. Cells are then diluted to 150,000 cells per mL into growth media. […]
Day 2: The test compound sample plate is prepared. […] Add 100 μl of Celltiter-glo reagent to each well of the cell culture plate and afterwards measure the luminescence signal (CPS) of the plate using the Victor 5 plate reader (0.3 second read; 60 second plate shaking prior to read). […]
Use 20 μl of media supernatant per well for TNFα ELISA. […] After addition of stop solution, measure OD 450 nm using the Victor 5 plate reader (0.1 second/well scan). […]

[2] = Mus musculus, RAW264.7, 200 ng/mL LPS for 3 hours

Compound	IC50 (NFκB; [2]) [µM]	also measured
CC/C=C\C/C=C\C/C=C\C/C=C\C/C=C\C/C=C\CCC(=O)Nc1ccc(O)c(C(=O)O)c1 [III-1]	–	IC50 (NFκB; 200 ng/mL LPS for 3 hours): < 200 µM; IC50 ([1]; 10 ng/mL LPS, 3 hours, TNFα ELISA, read-out: TNFα Secrection, IC50 μM): 146 µM
O=C(O)c1ccccc1O [salicylate, Salicylate]	–	inhibition of the production of TNFα (in words, FIG. 2) ([1]; LPS): do not appreciably inhibit
CC/C=C\C/C=C\C/C=C\C/C=C\C/C=C\C/C=C\CCC(=O)NC(C)CNC(=O)c1ccccc1O (stereo not drawn) [Ih-6, N-(2-(4Z,7Z,10Z,13Z,16Z,19Z)-docosa-4,7,10,13,16,19-hexaenamidopropyl)-2-hydroxybenzamide]	< 200	–

Now from value to compound, other results behind:

IC50 (NFκB; [2]) [µM]	Compound	also measured
< 200	CC/C=C\C/C=C\C/C=C\C/C=C\C/C=C\C/C=C\CCC(=O)NC(CC(C)C)C(=O)Oc1cc(C(F)(F)F)ccc1C(=O)OCC (stereo not drawn) [Ii-5, ethyl 2-(2-(4Z,7Z,10Z,13Z,16Z,19Z)-docosa-4,7,10,13,16,19-hexaenamido-4-methylpentanoyloxy)-4-(trilluoromethyl)benzoate]	–
< 200	CC/C=C\C/C=C\C/C=C\C/C=C\C/C=C\C/C=C\CCC(=O)NC(Cc1ccccc1)C(=O)Oc1ccccc1C(=O)OCC (stereo not drawn) [Ii-3, ethyl 2-(2-(4Z,7Z,10Z,13Z,16Z,19Z)-docosa-4,7,10,13,16,19-hexaenamido-3-phenylpropanoyloxy)benzoate]	–
